Earlier results in patent US20160310758A1, “SYSTEMS AND METHODS FOR PHOTOACTIVATING A PHOTOSENSITIZER APPLIED TO AN EYE” (Avedro, Inc., priority 2015, published 2016).

Assays:
[1] = system: bacteria; conditions: D2O by itself, without photosensitizer; Skladnev et al. 1996
[2] = non-ionic permeability enhancer in riboflavin formulations

Compound | killing of bacteria [1] | HLB number [2]
[2H]O[2H] [D2O, deuterated water] | does not kill bacteria | 
Polyoxyethylene (9) lauryl ether [Polidocanol] |  | approximately 13.6
